B1: ovalbumin (protein, UniProt P01012 2-386, looked up)
Ovalbumin: GSIGAASMEFCFDVFKELKVHHANENIFYCPIAIMSALAMVYLGAKDSTRTQINKVVRFDKLPGFGDSIEAQCGTSVNVHSSLRDILNQITKPNDVYSFSLASRLYAEERYPILPEYLQCVKELYRGGLEPINFQTAADQARELINSWVESQTNGIIRNVLQPSSVDSQTAMVLVNAIVFKGLWEKAFKDEDTQAMPFRVTEQESKPVQMMYQIGLFRVASMASEKMKILELPFASGTMSMLVLLPDEVSGLEQLESIINFEKLTEWTSSNVMEERKIKVYLPRMKMEEKYNLTSVLMAMGITDVFSSSANLSGISSAESLKISQAVHAAHAEINEAGREVVGSAEAGVDAASVSEEFRADHPFLFCIKHIATNAVLFFGRCVSP
notes: nominal antigen, Ovalbumin grade VII, Sigma

Assays:
[1] = test system: CD8+ T cells responsive to OVA; test: SIINFEKL pentamer assay of OVA-specific CD8+ T cells (FACS); type: in vivo, mouse; details: Example 6 Experiment A, FIG. 9; IM, 50 μg Ova with 1 μg adjuvant, days 0 and 14, blood day 21
Description: To verify the results obtained using the in vivo cytotoxicity assay described in the Examples above, similar experiments were performed and CD8+ T cell activation was determined by measuring the percentage of OVA-specific CD8+ T cells using a pentamer assay. Briefly, mice were injected intramuscularly with the indicated amounts of OVA and test adjuvant compound at either 1 μg or 100 ng per mouse, respectively on day 0 as follows:
Experiment A: • Group 1: 100 μl of PBS; • Group 2: 50 μg of Ova into 100 μl PBS; • Group 3: 50 μg of Ova with 1 μg αGalCer; • Group 4: 50 μg of Ova with 1 μg PBS-11 • Group 5: 50 μg of Ova with 1 μg PBS-14 • Group 6: 50 μg of Ova with 1 μg PBS-57 • Group 7: 50 μg of Ova with 1 μg PBS-96
Experiment B: • Group 1: 100 μl of PBS; • Group 2: 50 μg of Ova into 100 μl PBS; • Group 3: 50 μg of Ova with 100 ng αGalCer; • Group 4: 50 μg of Ova with 100 ng PBS-11 • Group 5: 50 μg of Ova with 100 ng PBS-14 • Group 6: 50 μg of Ova with 100 ng PBS-57 • Group 7: 50 μg of Ova with 100 ng PBS-96 A second injection was administered to the mice on day 14 and blood was collected from the mice on day 21. The lymphocytes were collected and analyzed by FACS analysis using H-2 K^b SIINFEKL pentamer and CD8 antibody to detect CD8+ T cells responsive to OVA.

[2] = test system: Ova-specific target cells; test: in vivo cytotoxic specific cell lysis assay (CD8+ T cell response) in immunized mice; set-up: species or system mouse; details: for average Ova-specific cell lysis: Example 4, FIG. 6, 400 μg Ova with or without 1 μg adjuvant (PBS-57 new formulation)

Molecule | percentage of OVA specific CD8+ T cells [1] | specific lysis of Ova-specific target cells in blood ([2]; Example 1, FIG. 1, IV, 1 μg adjuvant with 50 μg Ova, day 11) | average Ova-specific cell lysis ([2]; IV, day 11 blood) [%] | percentage of specific lysis of the target cells by CD8+ T cells ([2]; Example 5 Experiment B, FIG. 8, 50 μg OVA with 10 ng adjuvant intramuscularly) | average Ova-specific cytotoxic response ([2]; Example 2, FIG. 2, IV, 400 μg Ova with or without 1 μg adjuvant, day 11 blood) [%] | average OVA-specific cytotoxic response ([2]; Example 2, FIG. 3, IM, 400 μg Ova with or without 1 μg adjuvant, day 11 blood) [%]
CCCCCCCCCCCCCCCCCCCCCCCCCC(=O)N[C@@H](CO[C@H]1O[C@H](CNC(=O)CCCC[C@@H]2SC[C@@H]3NC(=O)N[C@@H]32)[C@H](O)[C@H](O)[C@H]1O)[C@H](O)[C@H](O)CCCCCCCCCCCCCC [PBS-11, reference compound] | not as effective | did not result in specific lysis of cells | 32.3±2.5 | indistinguishable from the controls | – | –
B1 | – | – | 11.8±14.4 | – | 11.8±14.4 | 1.60±14.33

Reference: patent US8207135B2, “Compositions for and methods of enhancing the immune response to antigens” (Wittycell, priority 2007, dated 2012)
